Key:
TET2 [1] = molecular target: T1, TET2 (Pyrococcus horikoshii, UniProt O59196); experiment: MAS NMR 1H-15N peak doubling (G92, D94, H323); assay type: binding; settings: active site; 50% (vol/vol) MPD, pH 7.6, ca. 28 °C; slow exchange
T1 construct: gene frvX; full length, 353 residues per subunit, pET41c in E. coli BL21(DE3), no tag mentioned (heat step, Resource Q, Superdex 200), 39 kDa subunit, 468 kDa homododecamer, two Zn per active site

TET2 [2] = molecular target: T2, TET2 (Pyrococcus horikoshii, UniProt O59196, H123F); experiment: MAS NMR 1H-15N chemical-shift perturbation; assay type: binding; settings: active site, non-covalent; isotope-labelled protein, ca. 28 °C
T2 construct: gene frvX; full length, 353 residues per subunit, pET41c in E. coli BL21(DE3), no tag mentioned (heat step, Resource Q, Superdex 200), 39 kDa subunit, 468 kDa homododecamer, two Zn per active site
T2 sequence (O59196 whole entry H123F): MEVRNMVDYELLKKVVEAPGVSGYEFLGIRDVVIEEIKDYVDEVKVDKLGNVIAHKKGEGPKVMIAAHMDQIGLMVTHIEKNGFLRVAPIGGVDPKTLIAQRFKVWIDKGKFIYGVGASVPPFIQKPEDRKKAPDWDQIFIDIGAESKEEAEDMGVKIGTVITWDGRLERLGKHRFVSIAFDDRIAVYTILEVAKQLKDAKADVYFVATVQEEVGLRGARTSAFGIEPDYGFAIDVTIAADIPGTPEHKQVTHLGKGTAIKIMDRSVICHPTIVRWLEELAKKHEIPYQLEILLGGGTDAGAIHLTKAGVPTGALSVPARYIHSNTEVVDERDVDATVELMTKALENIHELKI

TET2 [3] = molecular target: T1, TET2; experiment: MAS NMR chemical-shift perturbation; assay type: binding; settings: active site, non-covalent; isotope-labelled protein, ca. 28 °C
TET2 [4] = molecular target: T3, TET2 (Pyrococcus horikoshii, UniProt O59196, H123Y); experiment: H-Leu-pNA hydrolysis, absorbance at […] nm; assay type: biochemical; settings: 6.4 mM H-Leu-pNA, 1, 5 or 20 mM histidine, pH 7.5, 50 °C
T3 construct: gene frvX; full length, 353 residues per subunit, pET41c in E. coli BL21(DE3), no tag mentioned (heat step, Resource Q, Superdex 200), 39 kDa subunit, 468 kDa homododecamer, two Zn per active site
T3 sequence (O59196 whole entry H123Y): as the sequence (O59196 whole entry H123F) above, with F123Y counted along it

TET2 [5] = molecular target: T1, TET2; experiment: H-Leu-pNA hydrolysis, absorbance at […] nm; assay type: biochemical; settings: 6.4 mM H-Leu-pNA, 1, 5 or 20 mM histidine, pH 7.5, 50 °C

T1 sequence (O59196 whole entry): as the sequence (O59196 whole entry H123F) above, with F123H counted along it

## CC(O)CC(C)(C)O (centres unmarked) [2-methyl-2,4-pentanediol]
TET2 [1]
  MAS NMR 1H-15N peak doubling (G92, D94, H323): 2-methyl-2,4-pentanediol (MPD), a common crystallization agent used also to obtain solid-state NMR samples, interacts

## CC(C)C[C@@H](N)[C@H](O)C(=O)N[C@H](C(=O)N[C@H](C(=O)N[C@@H](CC(=O)O)C(=O)O)C(C)C)C(C)C [amastatin]
TET2 [2]
  MAS NMR 1H-15N chemical-shift perturbation: We ensured that amastatin tightly binds to the H123F mutant
TET2 [3]
  MAS NMR chemical-shift perturbation: MAS NMR experiments reveal the chemical-shift perturbations induced by this tightly bound inhibitor

## N[C@@H](Cc1c[nH]cn1)C(=O)O [histidine]
TET2 [4]
  activity with added free histidine: addition of free His not only does not increase the activity, but abolishes the function
TET2 [5]
  activity with added free histidine: abolishes the function of WT and mutant TET2
